Measurements from patent US7250397B2, “Antiarrhythmic peptides” (Zealand Pharma A/S, priority 2000, dated 2007).
Entries after “also recorded” stand apart in the source; their conditions may differ.

Legend:
[1] = tested on: isolated perfused rabbit hearts; experiment: Isolated perfused rabbit hearts (Langendorff), APD90 dispersion
[2] = tested on: human osteoblastic cells; experiment: Intercellular calcium wave propagation in human osteoblasts; type: cell-based; settings: 10^−8 M; medium without glucose (1.4 cells before); after ATP desensitization
Experimental: (§1) Human osteblast cells (hOB): Cells were isolated from human bone marrow obtained by puncture of the posterior iliac spine of healthy volunteers (aged 20-36): 10-15 ml marrow material was collected in 15 ml PBS+Ca,Mg (Life Technologies, Cat.No. 14040) with 100 U/ml Heparin (Sigma, Cat.No. H-3149). The mononuclear fraction of the marrow was isolated on a Lymphoprep gradient (Nycomed Pharma, Cat.No. 1001967), by centrifugation at 2200 rpm for 30 min. After harvesting, the mononuclear fraction was washed once with culture medium and centrifuged at 1800 rpm for 10 min. Subsequently cells were counted and plated in culture medium at 8×10^6 cells/100 mm dish. hOB medium (all reagents obtained from Life Technologies): MEM w/o Phenol Red w/Glutamax (Cat.No. 041-93013) supplemented with 10% heat inactivated fetal calf serum (Cat.No. 10106) and 0.1% Penicillin/Streptomycin (Cat.No. 15140). Medium was changed the following day and the cells were cultured at 37° C. in 5%CO2 with medium change every 7 days. After 3-4 weeks of culture the cells had reached 70% confluence. The medium was then supplemented with 100 nM Dexamethasone (Sigma, Cat.No. D-4902) for 7 days. […]
Metabolic stress induced by hypoglycemia is also known to decrease gap junctional communication. […] After ATP desensitization as described above, one single cell was stimulated mechanically, and the number of cells in the wave was recorded. […]

[3] = tested on: ROS 17/2.8 cells; experiment: Intercellular calcium wave propagation in ROS 17/2.8 cells; type: cell-based, rat; settings: 10^−8 M, 10 minutes; 48 hours hypoxia 3-6% O2 (2.2 cells before)
Experimental: ROS 17/2.8 cells: Cells were cultured in 100 mm dishes at 37° C. with 5% CO2 and medium change every 2-3 days. ROS medium (all reagents obtained from Life Technologies) MEM (Cat.No. 31095) supplemented with 10% heat-inactivated calf serum (Cat.No. 16170), 1% NEAA (Cat.No. 11140), 1% Sodium Pyruvate (Cat.No. 11360), 1% L-Glutamine (Cat.No. 25030) and 0.1% Penicillin/Streptomycin (Cat.No. 15140). For video imaging experiments, cells were plated on coverslips at 2-3×10^5 cells/coverslip and cultured for 2-3 days before use.
The cells cultured on coverslips were loaded with 5 μM fura-2-AM (Molecular Probes, Cat.No. F-1221), for 30 minutes at 37° C., and incubated in fresh medium for 20 minutes. Coverslips were then affixed to a PDMI-2 culture chamber (Medical Systems Corp.), maintained at 37° C. with superfused CO2, on a Zeiss Axiovert microscope. Intercellular calcium waves were induced by mechanical stimulation of a single cell using a borosilicate glass micro pipette affixed to an Eppendorf 5171 micromanipulator. Imaging was performed using a MetaMorph imaging system (Universal Imaging). The excitation light (340 and 380 nm) was provided by a monochromator (T.I.L.L. Photonics GmbH). Images were acquired with an intensified CCD camera (Dage MTI) and digitized with a Matrox MVP image processing board. […]

[4] = tested on: alkaline phosphatase (ALP) activity of human osteoblasts; experiment: Alkaline phosphatase (ALP) assay in human osteoblasts; type: cell-based; settings: four days; 10^−13-10^−6 M; normal culture conditions
Experimental: as §1, with “confluence.” for “confluence. The medium was then supplemented with 100 nM Dexamethasone (Sigma, Cat.No. D-4902) for 7 days.”
• Day 1: Cells were plated in 96-well plates at a conc. of 8000 cells/well (hOB) or 3000 cells/well (ROS) in 200 μl normal culture medium. • Day 2: Medium was changed on the cells. • Day 4: (Day 3 for ROS): Cells were washed with 200 μl MEM, 0.1% BSA (Sigma, Cat.No. A-9418). […] Absorbance was measured using a plate reader at 405 nm. […]

Substance: Ac-D-Tyr-D-Pro-D-4Hyp-Gly-D-Ala-Gly-NH2 [Compound 2]
- increase in APD90 dispersion during hypokalemic, acute myocardial ischemia [1]: prevented
- average number of cells in the calcium wave [2]: 2.9 cells
- average number of cells in the calcium wave [3]: 5.4 cells
- ALP activity compared to untreated controls [4]: increased ALP activity at most of the concentrations tested; also recorded: stimulated ALP activity
